From patent US20250388543A1, “HETEROARYL COMPOUNDS FOR THE TREATMENT OF PAIN” (VERTEX PHARMACEUTICALS INCORPORATED, priority 2022, published 2025)

Target: human NaV 1.8 (Homo sapiens, UniProt Q9Y5Y9)
Test: E-VIPR Assay Detecting and Measuring NaV Inhibition Properties
Format: cell-based
Conditions: HEK cells expressing a truncated form of human NaV 1.8 with full channel activity; electrical stimulation, membrane-potential FRET dyes; 30 minutes compound incubation; read-out: measured IC50 value in the E-VIPR Assay
Text: E-VIPR Assay Detecting and Measuring NaV Inhibition Properties
Sodium ion channels are voltage-dependent proteins that can be activated by inducing membrane voltage changes by applying electric fields. The electrical stimulation instrument and methods of use, referred to as E-VIPR, are described in International Publication No. WO 2002/008748 A3 and C.-J. Huang et al. Characterization of voltage-gated sodium channel blockers by electrical stimulation and fluorescence detection of membrane potential, 24 Nature Biotech. 439-46 (2006), both of which are incorporated by reference in their entirety. The instrument comprises a microtiter plate handler, an optical system for exciting the coumarin dye while simultaneously recording the coumarin and oxonol emissions, a waveform generator, a current- or voltage-controlled amplifier, and parallel electrode pairs that are inserted into assay plate wells. Under integrated computer control, this instrument passes user-programmed electrical stimulus protocols to cells within the wells of the microtiter plate.
16-20 hours prior to running the assay on E-VIPR, HEK cells expressing a truncated form of human NaV 1.8 with full channel activity were seeded into microtiter 384-well plates, pre-coated with matrigel, at a density of 25,000 cells per well. 2.5-5% KIR2.1 BacMam virus was added to the final cell suspension before seeding into cell plates. HEK cells were grown in Dulbecco's Modified Eagle's Medium (DMEM) supplemented with 10% FBS (Fetal Bovine Serum, qualified; Sigma #F4135), 1% NEAA (Non-Essential Amino Acids, Gibco #11140), 1% HEPES (Gibco #15630), 1% Pen-Strep (Penicillin-Streptomycin; Gibco #15140) and 5 μg/ml Blasticidin (Gibco #R210-01). Cells were expanded in 5-layer CellSTACK culture chambers or cell culture flasks with vented caps, with 90-95% humidity and 5% CO2.
Reagents and Stock Solutions:
100 mg/mL Pluronic F-127 (Sigma #P2443), in dry DMSO
Compound Plates: Corning 384-well Polypropylene Round Bottom #3656
Cell Plates: 384-well tissue culture treated plates (Greiner #781091-2B)
2.5-5% KIR 2.1 Bacmam virus (produced in-house), prepared as described in Section 3.3 of J. A. Fornwald et al., Gene Expression in Mammalian Cells Using BacMam, a Modified Baculovirus System, 1350 Methods in Molecular Biology 95-116 (2016), the entire contents of which are incorporated by reference. The concentration used can be dependent on viral titer of each batch.
5 mM DiSBAC6(3), a voltage sensitive oxonol acceptor (CAS number 169211-44-3; 5-[3-(1,3-dihexylhexahydro-4,6-dioxo-2-thioxo-5-pyrimidinyl)-2-propen-1-ylidene]-1,3-dihexyldihydro-2-thioxo-4,6(1H,5H)-pyrimidinedione), in dry DMSO. The preparation of DiSBAC6(3) is analogous to that of DiSBAC4(3) as described in Voltage Sensing by Fluorescence Resonance Energy Transfer in Single Cells, Gonzalez, J. E. and Tsien, R. Y. (1995) Biophys. J. 69, 1272-1280.
5 mM CC2-DMPE, a commercially available membrane-bound coumarin phospholipid FRET donor (ThermoFisher Scientific catalog number K1017, CAS number 393782-57-5; tetradecanoic acid, 1,1′-[(1R)-1-[8-(6-chloro-7-hydroxy-2-oxo-2H-1-benzopyran-3-yl)-3-hydroxy-3-oxido-8-oxo-2,4-dioxa-7-aza-3-phosphaoct-1-yl]-1,2-ethanediyl]ester) was prepared in dry DMSO. See also, Improved indicators of cell membrane potential that use fluorescence resonance energy transfer, Gonzalez, J. E. and Tsien, R. Y. (1997) Chem. Biol. 4, 269-277.
Voltage Assay Background Suppression Compound (VABSC-1) is prepared in H2O (89-363 mM, range used to maintain solubility)
Human Serum (HS, Millipore #S1P1-01KL, or Sigma SLBR5469V and SLBR5470V as a 50%/50% mixture, for 25% assay final concentration)
Sodium Chloride 160 mM (9.35 g/L), Potassium Chloride, 4.5 mM (0.335 g/L), Glucose 10 mM (1.8 g/L), Magnesium Chloride (Anhydrous) 1 mM (0.095 g/L), Calcium Chloride 2 mM (0.222 g/L), HEPES 10 mM (2.38 g/L) in water. […]

human NaV 1.8, sequence (Q9Y5Y9 126-1722 limits assumed): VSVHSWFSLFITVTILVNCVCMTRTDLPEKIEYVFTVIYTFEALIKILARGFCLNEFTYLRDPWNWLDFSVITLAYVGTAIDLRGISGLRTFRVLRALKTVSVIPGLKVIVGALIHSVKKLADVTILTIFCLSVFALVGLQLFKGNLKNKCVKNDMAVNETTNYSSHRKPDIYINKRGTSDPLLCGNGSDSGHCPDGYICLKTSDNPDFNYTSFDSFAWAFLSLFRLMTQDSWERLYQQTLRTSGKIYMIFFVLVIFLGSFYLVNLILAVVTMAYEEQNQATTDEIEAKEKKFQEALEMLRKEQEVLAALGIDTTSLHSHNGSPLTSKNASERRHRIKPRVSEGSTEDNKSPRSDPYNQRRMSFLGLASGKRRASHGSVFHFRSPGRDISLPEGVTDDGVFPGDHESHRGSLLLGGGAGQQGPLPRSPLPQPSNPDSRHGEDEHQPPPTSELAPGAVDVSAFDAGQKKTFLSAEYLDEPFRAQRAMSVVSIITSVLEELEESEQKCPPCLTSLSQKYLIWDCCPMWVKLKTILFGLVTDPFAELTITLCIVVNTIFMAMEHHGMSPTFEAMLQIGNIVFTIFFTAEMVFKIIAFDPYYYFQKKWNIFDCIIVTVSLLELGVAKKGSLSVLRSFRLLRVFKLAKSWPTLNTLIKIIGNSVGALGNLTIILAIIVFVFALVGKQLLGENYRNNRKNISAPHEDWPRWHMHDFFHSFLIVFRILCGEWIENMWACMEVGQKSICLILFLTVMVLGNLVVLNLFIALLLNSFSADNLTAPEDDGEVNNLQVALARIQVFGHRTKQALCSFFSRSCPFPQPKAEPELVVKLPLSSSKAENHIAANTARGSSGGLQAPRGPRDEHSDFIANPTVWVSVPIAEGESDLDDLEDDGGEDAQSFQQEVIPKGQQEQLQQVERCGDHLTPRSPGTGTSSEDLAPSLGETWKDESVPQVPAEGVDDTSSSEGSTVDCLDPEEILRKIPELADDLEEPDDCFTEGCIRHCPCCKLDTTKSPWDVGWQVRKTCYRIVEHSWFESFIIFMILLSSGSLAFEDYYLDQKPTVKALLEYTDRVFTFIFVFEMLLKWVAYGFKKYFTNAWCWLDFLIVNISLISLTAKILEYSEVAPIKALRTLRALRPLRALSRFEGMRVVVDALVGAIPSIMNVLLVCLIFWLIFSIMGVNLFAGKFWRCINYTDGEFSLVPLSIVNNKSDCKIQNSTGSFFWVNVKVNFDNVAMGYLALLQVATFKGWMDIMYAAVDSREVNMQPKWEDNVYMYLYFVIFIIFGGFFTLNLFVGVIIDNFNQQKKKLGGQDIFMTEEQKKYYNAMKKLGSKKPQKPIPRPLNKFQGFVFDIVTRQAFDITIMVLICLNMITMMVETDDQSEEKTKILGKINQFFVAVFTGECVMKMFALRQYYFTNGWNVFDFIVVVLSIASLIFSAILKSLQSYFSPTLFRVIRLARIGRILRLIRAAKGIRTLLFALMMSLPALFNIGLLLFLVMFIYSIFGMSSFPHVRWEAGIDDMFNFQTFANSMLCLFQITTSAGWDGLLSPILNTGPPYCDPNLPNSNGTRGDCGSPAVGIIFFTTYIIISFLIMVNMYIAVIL

| IC50 [nM] | Compound |
| --- | --- |
| 2000 to 5000 | Cc1cc(=O)cc(-c2cnc(C(F)(F)F)nc2C2CCC(F)(F)CC2)[nH]1 [Compound 109, 2-[4-(4,4-difluorocyclohexyl)-2-(trifluoromethyl)pyrimidin-5-yl]-6-methyl-1H-pyridin-4-one] |
| 2000 to 5000 | CCOC(=O)c1c(-c2cc3ccccc3nc2N2CCC[C@@H](OC)C2)[nH]c(C)c(OC)c1=O [Compound 224, ethyl 5-methoxy-2-[2-[(3R)-3-methoxy-1-piperidyl]-3-quinolyl]-6-methyl-4-oxo-1H-pyridine-3-carboxylate] |
| ≥ 5000 | Cc1cc(C(C)(C)C)cc(Oc2ccc(F)cc2O)c1-c1cc(=O)cc[nH]1 [Compound 160, 2-[4-tert-butyl-2-(4-fluoro-2-hydroxy-phenoxy)-6-methyl-phenyl]-1H-pyridin-4-one] |
| ≥ 5000 | CCOC(=O)c1c(-c2cc3ccccc3nc2N2CCOCC2)[nH]c(C)c(OC)c1=O [Compound 249, ethyl 5-methoxy-6-methyl-2-(2-morpholino-3-quinolyl)-4-oxo-1H-pyridine-3-carboxylate] |
| 500 to 2000 | CCOC(=O)c1c(-c2cc3ccccc3nc2N2CCCCC2)[nH]c(C)c(OC)c1=O [Compound 250, ethyl 5-methoxy-6-methyl-4-oxo-2-[2-(1-piperidyl)-3-quinolyl]-1H-pyridine-3-carboxylate] |
| ≥ 5000 | Cc1cc(=O)cc(-c2cc(C(F)(F)F)cnc2N2CCC(F)(F)CC2)[nH]1 [Compound 157, 2-[2-(4,4-difluoro-1-piperidyl)-5-(trifluoromethyl)-3-pyridyl]-6-methyl-1H-pyridin-4-one] |
| ≥ 5000 | Cc1cc(=O)cc(-c2c(C(F)(F)F)ccnc2N2CCC(F)(F)CC2)[nH]1 [Compound 319, 2-[2-(4,4-difluoro-1-piperidyl)-4-(trifluoromethyl)-3-pyridyl]-6-methyl-1H-pyridin-4-one] |
| ≥ 5000 | Cc1cc(=O)cc(-c2ccccc2C2CC2)[nH]1 [Compound 148, 2-(2-cyclopropylphenyl)-6-methyl-1H-pyridin-4-one] |
| 500 to 2000 | COc1cc(F)ccc1Oc1cc(C(C)(C)C)cc(C)c1-c1cc(=O)c(C(=O)N(C)C)c(C)[nH]1 [Compound 289, 6-[4-tert-butyl-2-(4-fluoro-2-methoxy-phenoxy)-6-methyl-phenyl]-N,N,2-trimethyl-4-oxo-1H-pyridine-3-carboxamide] |
| ≥ 5000 | Cc1cc(=O)cc(-c2ccccc2OCC2CC2)[nH]1 [Compound 146, 2-[2-(cyclopropylmethoxy)phenyl]-6-methyl-1H-pyridin-4-one] |
| ≥ 5000 | COc1cc(F)ccc1Oc1cc(C(C)(C)C)cc(C)c1-c1cc(=O)cc(C(O)CO)[nH]1 (centres unmarked) [Compound 274, 2-[4-tert-butyl-2-(4-fluoro-2-methoxy-phenoxy)-6-methyl-phenyl]-6-(1,2-dihydroxyethyl)-1H-pyridin-4-one] |
| ≥ 5000 | COc1c(Oc2cc(C(F)(F)F)c(F)cc2-c2cc(=O)nc(C)[nH]2)ccc(F)c1F [Compound 55, 6-[2-(3,4-difluoro-2-methoxy-phenoxy)-5-fluoro-4-(trifluoromethyl)phenyl]-2-methyl-1H-pyrimidin-4-one] |
| 500 to 2000 | CCOC(=O)c1c(C)[nH]c(-c2c(Oc3ccc(F)c(F)c3C)ncc(C(F)(F)F)c2C)c(C)c1=O [Compound 43, ethyl 6-[2-(3,4-difluoro-2-methyl-phenoxy)-4-methyl-5-(trifluoromethyl)-3-pyridyl]-2,5-dimethyl-4-oxo-1H-pyridine-3-carboxylate] |
| 2000 to 5000 | CCOC(=O)c1c(-c2cc3ccccc3nc2N2CC[C@H](OC)C2)[nH]c(C)c(OC)c1=O [Compound 244, ethyl 5-methoxy-2-[2-[(3S)-3-methoxypyrrolidin-1-yl]-3-quinolyl]-6-methyl-4-oxo-1H-pyridine-3-carboxylate] |
| 2000 to 5000 | Cc1cc(=O)cc(-c2cc(C(F)(F)F)ncc2C2CCC(C(F)(F)F)CC2)[nH]1 (centres unmarked) [Compound 322, 2-methyl-6-[2-(trifluoromethyl)-5-[4-(trifluoromethyl)cyclohexyl]-4-pyridyl]-1H-pyridin-4-one] |
| ≥ 5000 | Cc1cc(=O)[nH]c(-c2nc(C(F)(F)F)ccc2N2CCCC(F)(F)CC2)n1 [Compound 252, 2-[3-(4,4-difluoroazepan-1-yl)-6-(trifluoromethyl)-2-pyridyl]-4-methyl-1H-pyrimidin-6-one] |
| 500 to 2000 | CO[C@@H]1CN(c2nc3ccccc3cc2-c2cc(=O)cc(C)[nH]2)C[C@@H]1C [Compound 253, 2-[2-[(3S,4S)-3-methoxy-4-methyl-pyrrolidin-1-yl]-3-quinolyl]-6-methyl-1H-pyridin-4-one] |
| 2000 to 5000 | CCOC(=O)c1c(-c2cc3ccccc3nc2N2CCCC(F)(F)C2)[nH]c(C)c(OC)c1=O [Compound 226, ethyl 2-[2-(3,3-difluoro-1-piperidyl)-3-quinolyl]-5-methoxy-6-methyl-4-oxo-1H-pyridine-3-carboxylate] |
| 500 to 2000 | COc1c(Oc2cnc(C(F)(F)F)cc2-c2[nH]c(C)c(C)c(=O)c2C(=O)O)ccc(F)c1F [Compound 280, 2-[5-(3,4-difluoro-2-methoxy-phenoxy)-2-(trifluoromethyl)-4-pyridyl]-5,6-dimethyl-4-oxo-1H-pyridine-3-carboxylic acid] |
| 500 to 2000 | Cc1[nH]c(-c2ccc(C(C)(C)C)cc2OCC2CC2(F)F)cc(=O)c1C (centres unmarked) [Compound 135, 6-[4-tert-butyl-2-[(2,2-difluorocyclopropyl)methoxy]phenyl]-2,3-dimethyl-1H-pyridin-4-one] |
| 2000 to 5000 | CCOC(=O)c1c(-c2cc(C(F)(F)F)ncc2N2CCCC(F)(F)CC2)[nH]c(C)c(C)c1=O [Compound 34, ethyl 2-[5-(4,4-difluoroazepan-1-yl)-2-(trifluoromethyl)-4-pyridyl]-5,6-dimethyl-4-oxo-1H-pyridine-3-carboxylate] |
| ≥ 5000 | Cc1cc(=O)cc(-c2c(C(F)(F)F)ccnc2N2CCCC(F)(F)CC2)[nH]1 [Compound 318, 2-[2-(4,4-difluoroazepan-1-yl)-4-(trifluoromethyl)-3-pyridyl]-6-methyl-1H-pyridin-4-one] |
| ≥ 5000 | Cc1cc(=O)cc(-c2cc(C(F)(F)F)ncc2C2CCC(C(F)(F)F)CC2)[nH]1 (centres unmarked) [Compound 321, 2-methyl-6-[2-(trifluoromethyl)-5-[4-(trifluoromethyl)cyclohexyl]-4-pyridyl]-1H-pyridin-4-one] |
| 500 to 2000 | Cc1[nH]c(-c2c(Oc3ccc(F)c(F)c3C)ncc(C(F)(F)F)c2C)cc(=O)c1-c1cn(C)c(C)n1 [Compound 162, 6-[2-(3,4-difluoro-2-methyl-phenoxy)-4-methyl-5-(trifluoromethyl)-3-pyridyl]-3-(1,2-dimethylimidazol-4-yl)-2-methyl-1H-pyridin-4-one] |
| ≥ 5000 | Cc1cc(=O)cc(-c2ccc(C(F)(F)F)cc2C2(O)CCC(F)(F)CC2)[nH]1 [Compound 323, 2-[2-(4,4-difluoro-1-hydroxy-cyclohexyl)-4-(trifluoromethyl)phenyl]-6-methyl-1H-pyridin-4-one] |
| 2000 to 5000 | CCOC(=O)c1c(-c2cc3ccccc3nc2N2CCC(OC)CC2)[nH]c(C)c(OC)c1=O [Compound 229, ethyl 5-methoxy-2-[2-(4-methoxy-1-piperidyl)-3-quinolyl]-6-methyl-4-oxo-1H-pyridine-3-carboxylate] |
